# According to article PMC5037267, “Crystal Structure of a Group I Energy Coupling Factor Vitamin Transporter S Component in Complex with Its Cognate Substrate” (Cell Chemical Biology, 2016):
# Where a chain is given by its changes, count along the chain named.
# Assays:
# Type in all cases: binding
# [1] = target: T1, YkoE (Bacillus subtilis, UniProt O34738); assay: CD thermal melting at […] nm; conditions: YkoE from M9 medium plus excess thiamine; reference without added thiamine 68 °C; pH 7.1, 200 mM NaCl; 1 °C/min
# T1 construct: isolated S component without YkoC/YkoD; N-terminal His6 tag cut by TEV; E. coli Lemo21; n-decyl-beta-D-maltopyranoside; four N-terminal residues not seen in crystal
# T1 sequence (O34738 1-199 limits assumed): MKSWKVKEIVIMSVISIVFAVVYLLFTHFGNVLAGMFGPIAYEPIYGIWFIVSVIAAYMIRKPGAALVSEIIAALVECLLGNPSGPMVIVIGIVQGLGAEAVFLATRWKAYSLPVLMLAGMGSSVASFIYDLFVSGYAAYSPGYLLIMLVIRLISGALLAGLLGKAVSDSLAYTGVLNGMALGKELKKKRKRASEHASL
# [2] = target: T2, YkoE (Bacillus subtilis, UniProt O34738, Q95A); assay: intrinsic Trp fluorescence quenching titration
# T2 construct: isolated S component without YkoC/YkoD; N-terminal His6 tag cut by TEV; E. coli Lemo21; n-decyl-beta-D-maltopyranoside; four N-terminal residues not seen in crystal
# T2 sequence (O34738 1-199 Q95A limits assumed): T1 sequence (O34738 1-199 limits assumed) with Q95A
# From the text: intrinsic Trp fluorescence quenching titration on YkoE | with the Q95A mutation showing the largest effect on affinity
# [3] = target: T3, YkoE (Bacillus subtilis, UniProt O34738, E77A); assay: intrinsic Trp fluorescence quenching titration
# T3 construct: isolated S component without YkoC/YkoD; N-terminal His6 tag cut by TEV; E. coli Lemo21; n-decyl-beta-D-maltopyranoside; four N-terminal residues not seen in crystal
# T3 sequence (O34738 1-199 E77A limits assumed): T1 sequence (O34738 1-199 limits assumed) with E77A
# [4] = target: T4, YkoE (Bacillus subtilis, UniProt O34738, Y46A); assay: intrinsic Trp fluorescence quenching titration
# T4 construct: isolated S component without YkoC/YkoD; N-terminal His6 tag cut by TEV; E. coli Lemo21; n-decyl-beta-D-maltopyranoside; four N-terminal residues not seen in crystal
# T4 sequence (O34738 1-199 Y46A limits assumed): T1 sequence (O34738 1-199 limits assumed) with Y46A
# [5] = target: T1, YkoE; assay: intrinsic Trp fluorescence quenching titration
# [6] = target: T5, YkoE (Bacillus subtilis, UniProt O34738, D131A); assay: intrinsic Trp fluorescence quenching titration
# T5 construct: isolated S component without YkoC/YkoD; N-terminal His6 tag cut by TEV; E. coli Lemo21; n-decyl-beta-D-maltopyranoside; four N-terminal residues not seen in crystal
# T5 sequence (O34738 1-199 D131A limits assumed): T1 sequence (O34738 1-199 limits assumed) with D131A
structure (smiles),measurement,setting,value
Cc1ncc(C[n+]2csc(CCO)c2C)c(N)n1 [thiamine],Tm,[1],75 °C
same,Kd,[2],26.9 ± 1.6 nM
same,Kd,[3],9.3 ± 0.6 nM
same,Kd,[4],10.3 ± 0.8 nM
same,Kd,[5],~4.5 nM
same,Kd,[6],9.4 ± 0.9 nM
